{
  "source": "paper PMC3292421",
  "about": "(International Journal of Nanomedicine, 2012)",
  "key": {"[1]": {"details": "long-term animal studies; cited from earlier work"}, "[2]": {"system": "P-glycoprotein", "details": "cited from earlier work"}, "[3]": {"details": "25°C"}},
  "note": "Like-named read-outs stand apart in the source and are kept apart here.",
  "data": [
    {"smiles": "O=C1Nc2ccccc2/C1=C1/Nc2ccccc2C1=O", "note": "[indirubin]", "values": [
      {"measurement": "Bone marrow toxicity and hematotoxicity", "setting": "[1]", "result": "neither bone marrow toxicity nor hematotoxicity"},
      {"measurement": "Influence of P-glycoprotein on transport through the rat intestine membrane", "setting": "[2]", "result": "not influenced"},
      {"measurement": "Solubility", "setting": "[3]; in Cremophor EL (surfactant)", "result": 1.305, "unit": "µmol/g"},
      {"measurement": "Solubility", "setting": "[3]; in Cremophor RH40 (surfactant)", "result": 0.631, "unit": "µmol/g"},
      {"measurement": "Solubility", "setting": "[3]; in GTCC (caprylic/capric triglyceride, oil)", "result": 0.154, "unit": "µmol/g"},
      {"measurement": "Solubility", "setting": "[3]; in IPM (isopropyl myristate, oil)", "result": 0.087, "unit": "µmol/g"},
      {"measurement": "Solubility", "setting": "[3]; in Labrafac Lipophile WL1349 (oil)", "result": 0.159, "unit": "µmol/g"},
      {"measurement": "Solubility", "setting": "[3]; in Labrafil M2125CS (oil)", "result": 0.338, "unit": "µmol/g"},
      {"measurement": "Solubility", "setting": "[3]; in Maisine 35-1 (oil)", "result": 0.755, "unit": "µmol/g"},
      {"measurement": "Solubility", "setting": "[3]; in Olive oil (oil)", "result": 0.145, "unit": "µmol/g"},
      {"measurement": "Solubility", "setting": "[3]; in PEG 200 (cosurfactant)", "result": 0.093, "unit": "µmol/g"},
      {"measurement": "Solubility", "setting": "[3]; in PEG 400 (cosurfactant)", "result": 0.143, "unit": "µmol/g"},
      {"measurement": "Solubility", "setting": "[3]; in Transcutol P (cosurfactant)", "result": 1.356, "unit": "µmol/g"}
    ]}
  ]
}
